In general, EC50 refers to the concentration needed to bring the measured effect to its halfway point.

Experiment [1] deals with Z-138 cells. Nature of the experiment: Z-138 Methylation Assay (In Cell Western for symmetric di-methyl arginine and DNA content). It counts as cell-based. The settings on record: Homo sapiens. The method in brief:
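Symmetric di-methyl arginine signal (800 nm) ratioed to DNA content (700 nm) by In Cell Western after four days of compound treatment of Z-138 suspension cells seeded at 50,000 cells/mL. Percent inhibition set between DMSO and 3 μM reference wells; IC50 curves from triplicates.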

Experiment [2] deals with Z-138 cells. Nature of the experiment: Z-138 Proliferation Assay (Cell Titer Glo, 5 days). It counts as cell-based. The settings on record: Homo sapiens. In short, it runs like this:
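Exponentially growing Z-138 cells (10,000 cells/ml) in RPMI 1640 with 10% FBS are exposed to nine-point 3-fold dilutions (final top concentration 20 μM, 0.2% DMSO) for 5 days at 37° C. Viability is measured as ATP by CellTiter-Glo luminescence. The 50% inhibitory concentration comes from a 4-parameter fit.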
Background: In ATP-based viability assays light output follows the ATP content of the culture.

Take `Cn1ncc2c(OCC(=O)NCC(O)CN3CCc4ccccc4C3)cccc21` (stereo not shown) [Compound A82]: the EC50 with Z-138 cells [1] (Table A-2, 96 hours, symmetric di-methyl arginine, read-out: ICW EC50) was under 0.1 µM; with Z-138 cells [2] (120 h, Table A-2, 5 days, top concentration 20 μM), 1 to 10 µM.
In the case of `Cn1cnc2ccc(-c3ccnc(NCC(O)CN4CCc5ccccc5C4)c3)cc21` (stereo not shown) [Compound D118], the EC50 was 0.101 to 1 µM in the experiment on Z-138 cells [1] (Table D-2, read-out: ICW EC50) and 1 to 10 µM in the experiment on Z-138 cells [2] (Table D-2).
